Experimental data taken from patent US9113629B2, “4-amino-6-(4-substituted-phenyl)-picolinates and 6-amino-2-(4-substituted-phenyl)-pyrimidine-4-carboxylates and their use as herbicides” (DOW AGROSCIENCES LLC, priority 2013, dated 2015).
Like-named read-outs stand apart in the source and are kept apart here.

Legend:
[1] = tested on: Key Broadleaf Weed and Crop Species; test: Post-emergent Test II herbicidal activity (Table 5); type: in vivo; details: post-emergence, 336 h, post-emergent, 14 days after application; for pest or weed control at 70 g/ha: 70 g ai/ha; for pest or weed control at 140 g/ha: 140 g ai/ha
In short: (§1)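 Foliar application at 187 L/ha to greenhouse-grown seedlings (first or second true leaf); subirrigation thereafter. Visual 0–100% injury at 14 d relative to untreated plants.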

[2] = tested on: Key Grass and Sedge Weeds as well as Grass Crops; test: Post-emergent Test II herbicidal activity (Table 6); type: in vivo; details: post-emergence, 336 h; for pest or weed control at 70 g/ha: application rate 70 g ai/ha; for pest or weed control at 140 g/ha: application rate 140 g ai/ha
In short: as §1

[3] = ABUTH: velvetleaf (Abutilon theophrasti), read-out: Visual Growth Reduction (%) 14 Days After Application ABUTH
[4] = AMARE: redroot pigweed (Amaranthus retroflexus), read-out: Visual Growth Reduction (%) 14 Days After Application AMARE
[5] = BRSNN: oilseed-rape, canola (Brassica napus), read-out: Visual Growth Reduction (%) 14 Days After Application BRSNN
[6] = CHEAL: lambsquarters (Chenopodium album), read-out: Visual Growth Reduction (%) 14 Days After Application CHEAL
[7] = EPHHL: wild poinsettia (Euphorbia heterophylla), read-out: Visual Growth Reduction (%) 14 Days After Application EPHHL
[8] = HELAN: sunflower (Helianthus annuus), read-out: Visual Growth Reduction (%) 14 Days After Application HELAN
[9] = VIOTR: wild pansy (Viola tricolor), read-out: Visual Growth Reduction (%) 14 Days After Application VIOTR
[10] = Triticum aestivum, TRZSS (wheat), read-out: Visual Growth Reduction (%) 14 Days After Application, TRZSS
[11] = CYPES: yellow nutsedge (Cyperus esculentus), read-out: Visual Growth Reduction (%) 14 Days After Application, CYPES
[12] = DIGSA: crabgrass (Digitaria sanguinalis), read-out: Visual Growth Reduction (%) 14 Days After Application, DIGSA
[13] = ECHCG: barnyardgrass (Echinochloa crus-galli), read-out: Visual Growth Reduction (%) 14 Days After Application, ECHCG
[14] = ORYSA: rice (Oryza sativa), read-out: Visual Growth Reduction (%) 14 Days After Application, ORYSA
[15] = SETFA: giant foxtail (Setaria faberi), read-out: Visual Growth Reduction (%) 14 Days After Application, SETFA
[16] = SORVU: grain sorghum (Sorghum vulgare), read-out: Visual Growth Reduction (%) 14 Days After Application, SORVU
[17] = ZEAMX: maize, corn (Zea mays), read-out: Visual Growth Reduction (%) 14 Days After Application, ZEAMX

`COC(=O)c1nc(-c2ccc(I)cc2)c(Cl)c(N)c1Cl` [Compound 96] gave a pest or weed control at 70 g/ha [1, 3] of 95 to 100%, a pest or weed control at 140 g/ha [1, 3] of 95 to 100% and a pest or weed control at 70 g/ha [1, 4] of 85 to 94%. The pest or weed control at 140 g/ha [1, 4] was 95 to 100%, the pest or weed control at 70 g/ha [1, 5] was 75 to 84% and the pest or weed control at 140 g/ha [1, 5] was 85 to 94%. For the same compound, the pest or weed control at 70 g/ha [1, 6] was 95 to 100%, the pest or weed control at 140 g/ha [1, 6] was 95 to 100% and the pest or weed control at 70 g/ha [1, 7] was 75 to 84%. It also gave a pest or weed control at 140 g/ha [1, 7] of 45 to 59%, a pest or weed control at 70 g/ha [1, 8] of 95 to 100% and a pest or weed control at 140 g/ha [1, 8] of 95 to 100%. It also gave a pest or weed control at 70 g/ha [1, 9] of 0 to 29%, a pest or weed control at 140 g/ha [1, 9] of 0 to 29% and a pest or weed control at 70 g/ha [2, 10] of 60 to 74%. It also gave a pest or weed control at 140 g/ha [2, 10] of 75 to 84%, a pest or weed control at 70 g/ha [2, 11] of 95 to 100% and a pest or weed control at 140 g/ha [2, 11] of 95 to 100%. For the same compound, the pest or weed control at 70 g/ha [2, 12] was 60 to 74%, the pest or weed control at 140 g/ha [2, 12] was 75 to 84% and the pest or weed control at 70 g/ha [2, 13] was 0 to 29%. The pest or weed control at 140 g/ha [2, 13] was 60 to 74%, the pest or weed control at 70 g/ha [2, 14] was 0 to 29% and the pest or weed control at 140 g/ha [2, 14] was 0 to 29%. The pest or weed control at 70 g/ha [2, 15] was 60 to 74%, the pest or weed control at 140 g/ha [2, 15] was 75 to 84% and the pest or weed control at 70 g/ha [2, 16] was 85 to 94%. The pest or weed control at 140 g/ha [2, 16] was 85 to 94%, the pest or weed control at 70 g/ha [2, 17] was 75 to 84% and the pest or weed control at 140 g/ha [2, 17] was 75 to 84%.

`COC(=O)c1nc(-c2cc(F)c(I)cc2F)c(Br)c(N)c1Cl` [Compound 100] gave a pest or weed control at 70 g/ha [1, 3] of 85 to 94%, a pest or weed control at 140 g/ha [1, 3] of 85 to 94% and a pest or weed control at 70 g/ha [1, 4] of 85 to 94%. For the same compound, the pest or weed control at 140 g/ha [1, 4] was 95 to 100%, the pest or weed control at 70 g/ha [1, 5] was 60 to 74% and the pest or weed control at 140 g/ha [1, 5] was 60 to 74%. It also gave a pest or weed control at 70 g/ha [1, 6] of 95 to 100%, a pest or weed control at 140 g/ha [1, 6] of 95 to 100% and a pest or weed control at 70 g/ha [1, 7] of 45 to 59%. For the same compound, the pest or weed control at 140 g/ha [1, 7] was 45 to 59%, the pest or weed control at 70 g/ha [1, 8] was 85 to 94% and the pest or weed control at 140 g/ha [1, 8] was 85 to 94%. For the same compound, the pest or weed control at 70 g/ha [1, 9] was 0 to 29%, the pest or weed control at 140 g/ha [1, 9] was 0 to 29% and the pest or weed control at 70 g/ha [2, 10] was 30 to 44%. The pest or weed control at 140 g/ha [2, 10] was 60 to 74%, the pest or weed control at 70 g/ha [2, 11] was 0 to 29% and the pest or weed control at 140 g/ha [2, 11] was 0 to 29%. It also gave a pest or weed control at 70 g/ha [2, 12] of 45 to 59%, a pest or weed control at 140 g/ha [2, 12] of 60 to 74% and a pest or weed control at 70 g/ha [2, 13] of 0 to 29%. The pest or weed control at 140 g/ha [2, 13] was 0 to 29%, the pest or weed control at 70 g/ha [2, 14] was 0 to 29% and the pest or weed control at 140 g/ha [2, 14] was 0 to 29%. It also gave a pest or weed control at 70 g/ha [2, 15] of 0 to 29%, a pest or weed control at 140 g/ha [2, 15] of 0 to 29% and a pest or weed control at 70 g/ha [2, 16] of 0 to 29%. The pest or weed control at 140 g/ha [2, 16] was 0 to 29%, the pest or weed control at 70 g/ha [2, 17] was 0 to 29% and the pest or weed control at 140 g/ha [2, 17] was 45 to 59%.

In the case of `COC(=O)c1nc(-c2cc(F)c(I)cc2F)nc(N)c1OC` [Compound 101], the pest or weed control at 70 g/ha [1, 3] is reported as 85 to 94%, the pest or weed control at 140 g/ha [1, 3] is reported as 85 to 94% and the pest or weed control at 70 g/ha [1, 4] is reported as 85 to 94%. The pest or weed control at 140 g/ha [1, 4] was 85 to 94%, the pest or weed control at 70 g/ha [1, 5] was 95 to 100% and the pest or weed control at 140 g/ha [1, 5] was 95 to 100%. For the same compound, the pest or weed control at 70 g/ha [1, 6] was 85 to 94%, the pest or weed control at 140 g/ha [1, 6] was 85 to 94% and the pest or weed control at 70 g/ha [1, 7] was 95 to 100%. For the same compound, the pest or weed control at 140 g/ha [1, 7] was 95 to 100%, the pest or weed control at 70 g/ha [1, 8] was 85 to 94% and the pest or weed control at 140 g/ha [1, 8] was 85 to 94%. It also gave a pest or weed control at 70 g/ha [1, 9] of 0 to 29%, a pest or weed control at 140 g/ha [1, 9] of 0 to 29% and a pest or weed control at 70 g/ha [2, 10] of 30 to 44%. The pest or weed control at 140 g/ha [2, 10] was 30 to 44%, the pest or weed control at 70 g/ha [2, 11] was 45 to 59% and the pest or weed control at 140 g/ha [2, 11] was 45 to 59%. For the same compound, the pest or weed control at 70 g/ha [2, 12] was 45 to 59%, the pest or weed control at 140 g/ha [2, 12] was 60 to 74% and the pest or weed control at 70 g/ha [2, 13] was 0 to 29%. It also gave a pest or weed control at 140 g/ha [2, 13] of 85 to 94%, a pest or weed control at 70 g/ha [2, 14] of 0 to 29% and a pest or weed control at 140 g/ha [2, 14] of 0 to 29%. For the same compound, the pest or weed control at 70 g/ha [2, 15] was 0 to 29%, the pest or weed control at 140 g/ha [2, 15] was 60 to 74% and the pest or weed control at 70 g/ha [2, 16] was 30 to 44%. It also gave a pest or weed control at 140 g/ha [2, 16] of 45 to 59%, a pest or weed control at 70 g/ha [2, 17] of 60 to 74% and a pest or weed control at 140 g/ha [2, 17] of 60 to 74%.
